According to patent US11338009B2 (The Children's Hospital of Philadelphia, priority 2017, dated 2022):
Like-named read-outs stand apart in the source and are kept apart here. Each block holds one compound with its values, some of them ahead of it.

Tests used:
hCC L68Q variant = molecular target: T1, hCC L68Q variant (Homo sapiens, UniProt P01034, L94Q); assay: Incubation of supernatants and cellular extracts of hCC-expressing HEK-293T cells with reducing agents, non-reducing SDS-PAGE/Western blot for cystatin C; format: biochemical; settings: for concentration at which equivalent loss of high molecular signal was observed: supernatants or cell extracts treated in vitro (FIG. 6); for ability to disrupt high molecular weight complexes of L68Q Cyst-C: supernatants or cell extracts treated in vitro, 1 h at 37 C (FIG. 6); for oligomerization of hCC WT and L68Q variant in presence of reducing agent: DTT 50 mM or β-mercaptoethanol 5% in sample buffer, lysates and supernatants; for inhibition at 3000 µM / HMW of secreted hCC L68Q (quantitation): 3 mM; for HMW of secreted hCC L68Q (quantitation) / oligomerization/dimerization levels of secreted hCC L68Q variant in vitro: supernatants, 37° C. for 60 min; for high molecular weight complexes of L68Q Cyst-C: supernatants and cell extracts, 1 h at 37° C. (FIG. 5)
T1 construct: Dashed line represents the N-terminal signal peptide subject to proteolysis; expressed in transfected cells
T1 sequence (P01034 27-146 L94Q): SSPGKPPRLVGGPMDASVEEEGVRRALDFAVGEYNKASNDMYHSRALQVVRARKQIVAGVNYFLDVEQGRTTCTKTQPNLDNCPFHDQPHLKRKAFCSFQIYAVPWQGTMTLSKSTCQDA
Procedure: A plasmid containing a cDNA of CST3 was obtained from Dharmacon (Lafayette, Colo.). The full length coding sequence was amplified with a c-terminal Myc tag by PCR using the forward primer […] All sequences were confirmed by Sanger sequencing. […] After transfection cells were incubated with fresh medium containing puromycin (1 μg/ml) for 3 weeks. After selection, stable clones of each transfectant were generated by limiting dilution.
After clearing the cell lysates by centrifugation (10 minutes, 21,000×g, 4° C.), the supernatants were collected and used for Western blotting. Sample buffer containing SDS, glycerol, Tris-HCl pH 6.8, and bromophenol blue was added to each sample to the following final concentrations: 2% SDS, 10% glycerol, 50 mM Tris-HCl, 0.02% bromophenol blue. In samples that were reduced, either DTT (50 mM final concentration) or β-mercaptoethanol (5% final concentration) were added. […] Proteins were transferred to PVDF membranes (Millipore, Billerica, Mass.) and blotted with anti-hCystatin C, and developed by enhanced chemiluminescence (ECL; Thermo Fisher Scientific). ECL films were scanned, and densities of bands were determined using the gel analysis features of Fiji.^59
(§1) The means and standard deviations of data were calculated. One-sided T-test tests were used to determine the level of significance with respect to the untreated samples, with p<0.05 being considered statistically significant.

HEK-293T cells = assay: Viability and proliferation of hCC-expressing HEK-293T cells in the presence of reducing agents; format: cell-based, human
Procedure: (§2) HEK-239T cells were plated on 6-well plates and cultured for 2 days, at which point reduced glutathione (GSH) (Sigma, St. Louis, Mo.) or N-acetylcystein (NAC) (Sigma) were added to the indicated concentrations. Cells were incubated with compounds for 72 hours, and 100 μl samples of supernatants were removed at 24, 48, and 72 hours. Supernatants were cleared by centrifugation (10 minutes, 21,000×g, 4° C.). Sample buffer containing SDS, glycerol, Tris-HCl pH 6.8, and bromophenol blue was added to each sample to the following final concentrations: 2% SDS, 10% glycerol, 50 mM Tris-HCl, 0.02% bromophenol blue. When indicated, cells were washed with PBS and lysed and cystatin C levels were determined by means of Western blot analysis.

secreted hCC L68Q = molecular target: T2, secreted hCC L68Q (Homo sapiens, UniProt P01034, L94Q); assay: Treatment of live HEK-293T cells expressing hCC WT or L68Q with compounds, Western blot of supernatants or lysates; format: cell-based; settings: for presence of HMW and LMW of secreted hCC L68Q / reduction of HMW and LMW of secreted hCC L68Q: 10 mM; for presence of HMW and LMW of secreted hCC L68Q: 24 h and 48 h time points; for reduction of HMW and LMW of secreted hCC L68Q: 72 h; for effect on oligomerization of secreted hCC L68Q: lower doses (below 10 mM)
T2 construct: Dashed line represents the N-terminal signal peptide subject to proteolysis; expressed in transfected cells
T2 sequence (P01034 27-146 L94Q): T1 sequence (P01034 27-146 L94Q)
Procedure: HEK-293T cells expressing hCC WT or the L68Q variant were washed twice with ice-cold phosphate-buffered saline (PBS) and lysed on ice using a freshly prepared ice-cold cell lysis buffer containing 50 mM Tris-HCl, pH 7.4, 100 mM NaCl, 50 mM β-glycerophosphate, 10% glycerol (w/v), 1% NP-40 (w/v), 1 mM EDTA, 2 mM NaVO4, and a complete, EDTA-free, protein inhibitor cocktail (Roche Applied Science, Mannheim Germany) at 20 μl per mL of lysis buffer. After clearing the cell lysates by centrifugation (10 minutes, 21,000×g, 4° C.), the supernatants were collected and used for Western blotting. Sample buffer containing SDS, glycerol, Tris-HCl pH 6.8, and bromophenol blue was added to each sample to the following final concentrations: 2% SDS, 10% glycerol, 50 mM Tris-HCl, 0.02% bromophenol blue. In samples that were reduced, either DTT (50 mM final concentration) or β-mercaptoethanol (5% final concentration) were added. Equal volumes of lysate or supernatant samples were loaded on NuPAGE 4-12% Bis-Tris gels (Thermo Fisher Scientific, Waltham Mass.) without heating/boiling. Proteins were transferred to PVDF membranes (Millipore, Billerica, Mass.) and blotted with anti-hCystatin C, and developed by enhanced chemiluminescence (ECL; Thermo Fisher Scientific). ECL films were scanned, and densities of bands were determined using the gel analysis features of Fiji.^59
as §2, §1

[1] = human, in vivo
[2] = molecular target: T3, amyloid-cystatin protein complex aggregates in the skin (Homo sapiens, UniProt P01034, L94Q); assay: Cystatin C immunostaining of skin biopsies from HCCAA patients (hCC L68Q carriers) on NAC therapy; format: in vivo
T3 construct: from tissue; host or cells: human skin biopsies from HCCAA patients
T3 sequence (P01034 27-146 L94Q): T1 sequence (P01034 27-146 L94Q)
Source text: Three 4 mm skin biopsies from the back were taken from each of the three studied individuals. The skin biopsies were formalin-fixed and paraffin-embedded. They were cut into 3 μm sections for immunohistochemistry and immunostained with rabbit polyclonal cystatin C antibody (Sigma, HPA013143) using the EnVision Detection System as previously described.^22 hCC immunoreactivity in the carriers skin biopsies was quantified by semi-automated image analysis using the ImageJ software as previously described.^22 Bright-field images of each section from the carriers were captured using a ×20/0.3 NA objective. RGB color images of the sections were imported to ImageJ. On each image, a rectangular 2000×2000 pixels region of interest (ROI) was defined. Subsequent processing yielding the % area coverage of hCC immunoreactivity within each ROI was performed as previously described^22. […] The second biopsy was taken immediately prior to the family-wide initiation of NAC treatment (600 mg of NAC 3× per day for 6 months). The third biopsy was taken following 6 months of 600 mg 3× per day of NAC therapy.
The proband received 400 mg NAC 4× per day for 9 months followed by 600 mg 3× per day for 6 months. The parent received only the 600 mg 3× per day for 6 months course. The proband never missed a dose; the parent did miss the middle dose 2-3 times per week.

Cyst-C L68Q = molecular target: T4, Cyst-C L68Q (Homo sapiens, UniProt P01034, L94Q); assay: Incubation of plasma or brain extracts of Cyst-C L68Q transgenic mice with NAC, non-reducing Western blot; format: biochemical; settings: 1 h at 37° C.
T4 construct: from tissue; host or cells: plasma and brain extracts of Cyst-C L68Q transgenic mice (from Levy, New York University)
T4 sequence (P01034 27-146 L94Q): T1 sequence (P01034 27-146 L94Q)
Procedure: FIG. 7. High molecular weight complexes of Cyst-C L68Q can be detected in transgenic mice. Short incubation of NAC impairs oligomerization of Cyst-C L68Q on blood and brain extracts. Plasma or brain extracts were incubated in presence of NAC during 1 h at 37° C. with indicated concentrations. Samples were mixed with 2% SDS without reducing agents prior to electrophoresis, and proteins levels were detected by biotinylated anti-cystatin C antibody followed by streptavidin-HRP.
Additional results have been generated from transgenic mice that were obtained from our collaborator Eufrat Levy at New York University. These mice have been transformed with a human genomic DNA which contains the coding sequence of Cyst-C, […] non-coding portions of the gene which may impact expression levels. […] Western blots from the mouse tissue extracts are not as clean as blots from the cell system, as the antibody we use to detect was raised in a mouse. […] Although there are several non-specific high molecular weight bands observed in the non-transgenic samples, a clear high molecular weight “smear” is seen in the transgenic animals, consistent with what we observe in supernatant from the cell culture system.

concentration at which equivalent loss of high molecular signal was observed (hCC L68Q variant): 1 mM | ability to disrupt high molecular weight complexes of L68Q Cyst-C (hCC L68Q variant): retain the ability to disrupt
Compound: CC(=O)N[C@@H](CS)C(N)=O

oligomerization of hCC WT and L68Q variant in presence of reducing agent (hCC L68Q variant): completely abolished
Compound: O[C@@H](CS)[C@@H](O)CS [DTT]

inhibition at 3000 µM (hCC L68Q variant; cellular extract, 37° C., read-out: inhibition of the HMW on the intracellular fraction of the L68Q hCC variant (densitometry)): ~50% | inhibition at 3000 µM (hCC L68Q variant; supernatant, 37° C., read-out: inhibition of the HMW in the secreted fraction of the L68Q hCC variant (densitometry)): ~90% | HMW of secreted hCC L68Q (quantitation) (hCC L68Q variant): almost complete ablation | amount of dimer and/or HMW oligomer in secreted and intracellular fraction of hCC WT or L68Q variant (hCC L68Q variant; 3 or 10 mM, 37° C.): severely reduced | oligomerization/dimerization levels of secreted hCC L68Q variant in vitro (hCC L68Q variant; 3 or 10 mM): severely reduces | high molecular weight complexes of L68Q Cyst-C (hCC L68Q variant): significant reduction | presence of HMW and LMW of secreted hCC L68Q (secreted hCC L68Q): completely abolished | reduction of HMW and LMW of secreted hCC L68Q (secreted hCC L68Q): appreciable but incomplete reduction | effect on oligomerization of secreted hCC L68Q (secreted hCC L68Q; 24 h and 48 h): only incompletely effective | effect on oligomerization of secreted hCC L68Q (secreted hCC L68Q; after 72 h): no significant effect
Compound: N[C@@H](CCC(=O)N[C@@H](CS)C(=O)NCC(=O)O)C(=O)O [GSH, glutathione]
cell viability for the duration of the experiment (HEK-293T cells; all concentrations (up to 10 mM), 72 hours): viable | proliferation of the cells (HEK-293T cells; highest 10 mM concentration (data not shown)): slightly impacted

Compound: CC(=O)N[C@@H](CS)C(=O)O [NAC, N-acetyl cysteine]
tolerability of oral therapy [1]: well tolerated and without adverse events | reduction in staining of skin biopsy ([2]; parent), 600 mg 3× per day for 6 months, middle dose missed 2-3 times per week): 50% | progression of amyloid-cystatin stain intensity between skin biopsy #1 and #2 ([2]; proband, on NAC for about 9 months, stopped a few months prior to second biopsy): had not progressed in any significant way | reduction in staining of skin biopsy ([2]; sibling, lower doses of NAC): less obvious | HMW of secreted hCC L68Q (quantitation) (hCC L68Q variant): almost complete ablation | oligomerization/dimerization levels of secreted hCC L68Q variant in vitro (hCC L68Q variant; 3 or 10 mM): severely reduces | high molecular weight complexes of L68Q Cyst-C (hCC L68Q variant): significant reduction | concentration at which equivalent loss of high molecular signal was observed (hCC L68Q variant): 10 mM | presence of HMW and LMW of secreted hCC L68Q (secreted hCC L68Q): completely abolished | reduction of HMW and LMW of secreted hCC L68Q (secreted hCC L68Q): appreciable but incomplete reduction | dimerization status of the intracellular levels of L68Q hCC (secreted hCC L68Q; extracellular treatment of cells (data not shown)): does not appear to impact | effect on oligomerization of secreted hCC L68Q (secreted hCC L68Q; 24 h and 48 h): only incompletely effective | effect on oligomerization of secreted hCC L68Q (secreted hCC L68Q; after 72 h): no significant effect | Cyst-C monomer (Cyst-C L68Q): causes the appearance of monomer | high molecular weight smear of transgenic human Cyst-C (Cyst-C L68Q): reduces this smear

Compound: COC(=O)[C@H](CS)NC(C)=O [NAC-methyl ester, N-acetylcysteine methyl ester]
concentration at which equivalent loss of high molecular signal was observed (hCC L68Q variant): 1 mM | ability to disrupt high molecular weight complexes of L68Q Cyst-C (hCC L68Q variant): retain the ability to disrupt

high molecular weight complexes of L68Q Cyst-C (hCC L68Q variant): does not affect
Compound: CC(=O)N[C@@H](CO)C(=O)O [NAS, n-acetyl-serine]

oligomerization of hCC WT and L68Q variant in presence of reducing agent (hCC L68Q variant): completely abolished
Compound: OCCS [b-mercaptoethanol]

Compound: GSSH
high molecular weight complexes of L68Q Cyst-C (hCC L68Q variant): does not affect
